# How the values were obtained:
# [1] = Bulk hold study, ticagrelor 8 mg/ml in HPβCD 30% w/w, phosphate buffer pH 7.5; format: physicochemical
# Protocol: To investigate the impact of temperature and hold time, a new composition was prepared as per below Table 19. In first step a phosphate buffer at pH 7.5 was prepared and the buffered solution was heated to 40° C.-45° C. HPβCD was added to the buffered solution under continuous mixing. […] It usually took 30 mins to 4 hours depending on batch size. Then this solution was filtered through a 0.22-micron filter and packed in suitable clear or amber colored glass vials.
# [2] = 3 months stability study at pH 7, 7.5 and 8 in amber glass vials; format: physicochemical; parameters: Assay: unit not given here; details: for Acetal impurity / Amine impurity / Assay / Description / Regiomer / Sum impurities >0.05 / Total (impurity) / Triol impurity / pH: amber vials, HPβCD 40% w/w
# Protocol: To optimize the HPβCD concentration and the pH of the solution for intravenous use, a 12 week/3 months stability study was conducted. […] Its stability was tested at regular intervals.
# A comparison of stability profile at 3 different pH-7, 7.5 and 8—was carried out as below, the manufacturing process for all 3 formulations was kept constant with buffer strength at 19 mM.
# [3] = bulk hold at 45° C. in glass vials, T = 1 h
# [4] = bulk hold at 45° C. in glass vials, T = 110 h
# [5] = bulk solution in sealed vials, T = 1 M, 25° C.
# [6] = bulk solution in sealed vials, T = 1 M, 40° C.
# [7] = 19 mM pH 7 phosphate buffer, 1 M
# [8] = 19 mM pH 7 phosphate buffer, 2 M
# [9] = 19 mM pH 7 phosphate buffer, 3 M
# [10] = 19 mM pH 7 phosphate buffer, T0
# [11] = 19 mM pH 7.5 phosphate buffer, 1 M
# [12] = 19 mM pH 7.5 phosphate buffer, 2 M
# [13] = 19 mM pH 7.5 phosphate buffer, 3 M
# [14] = 19 mM pH 7.5 phosphate buffer, T0
# [15] = 19 mM pH 8 phosphate buffer, 1 M
# [16] = 19 mM pH 8 phosphate buffer, 2 M
# [17] = 19 mM pH 8 phosphate buffer, 3 M
# [18] = 19 mM pH 8 phosphate buffer, T0
smiles,measurement,setting,value
"CCCSc1nc(N[C@@H]2C[C@H]2c2ccc(F)c(F)c2)c2nnn([C@@H]3C[C@H](OCCO)[C@@H](O)[C@H]3O)c2n1 [ticagrelor, (1S,2S,3R,5S)-3-{7-[(1R,2S)-2-(3,4-difluorophenyl)cyclopropylamino]5-(propylthio)-3H-(1,2,3)triazolo (4,5-D)pyrimidin-3-yl}-5-(2 hydroxyethoxy) cyclopentane-1,2-diol]","Acetal impurity, average content","[1]; bulk hold at 30° C., T0",0.04%
same,"Amine impurity, average content","[1]; bulk hold at 30° C., T0",0.06%
same,Assay ticagrelor,"[1]; bulk hold at 30° C., T0",105.60%
same,"Regiomer impurity, average content","[1]; bulk hold at 30° C., T0",0.00%
same,Sum impurities >0.05,"[1]; bulk hold at 30° C., T0",0.10%
same,Total impurities,"[1]; bulk hold at 30° C., T0",0.21%
same,"Triol Impurity, average content","[1]; bulk hold at 30° C., T0",0.05%
same,"Acetal impurity, average content","[1]; bulk hold at 30° C., T4 W",0.04%
same,"Amine impurity, average content","[1]; bulk hold at 30° C., T4 W",0.06%
same,Assay ticagrelor,"[1]; bulk hold at 30° C., T4 W",106.14%
same,"Regiomer impurity, average content","[1]; bulk hold at 30° C., T4 W",0.00%
same,Sum impurities >0.05,"[1]; bulk hold at 30° C., T4 W",0.06%
same,Total impurities,"[1]; bulk hold at 30° C., T4 W",0.21%
same,"Triol Impurity, average content","[1]; bulk hold at 30° C., T4 W",0.04%
same,"Acetal impurity, average content",[1]; [3],0.04%
same,"Amine impurity, average content",[1]; [3],0.05%
same,Assay ticagrelor,[1]; [3],107.87%
same,"Impurity at relative retention time 1.33, average content",[1]; [3],0.07%
same,Sum impurities >0.05,[1]; [3],0.12%
same,Total impurities,[1]; [3],0.20%
same,"Triol Impurity, average content",[1]; [3],0.04%
same,"Acetal impurity, average content",[1]; [4],0.04%
same,"Amine impurity, average content",[1]; [4],0.07%
same,Assay ticagrelor,[1]; [4],109.10%
same,"Impurity at relative retention time 1.33, average content",[1]; [4],0.03%
same,Sum impurities >0.05,[1]; [4],0.11%
same,Total impurities,[1]; [4],0.28%
same,"Triol Impurity, average content",[1]; [4],0.05%
same,"Acetal impurity, average content",[1]; [5],0.03%
same,"Amine impurity, average content",[1]; [5],0.06%
same,Assay ticagrelor,[1]; [5],107.22%
same,"Impurity at relative retention time 1.03, average content",[1]; [5],0.02%
same,"Impurity at relative retention time 1.33, average content",[1]; [5],0.03%
same,"Regiomer impurity, average content",[1]; [5],0.03%
same,Sum impurities >0.05,[1]; [5],0.06%
same,Total impurities,[1]; [5],0.23%
same,"Triol Impurity, average content",[1]; [5],0.01%
same,"Acetal impurity, average content",[1]; [6],0.00%
same,"Amine impurity, average content",[1]; [6],0.06%
same,Assay ticagrelor,[1]; [6],105.16%
same,"Impurity at relative retention time 1.03, average content",[1]; [6],0.02%
same,"Impurity at relative retention time 1.33, average content",[1]; [6],0.08%
same,"Regiomer impurity, average content",[1]; [6],0.08%
same,Sum impurities >0.05,[1]; [6],0.21%
same,Total impurities,[1]; [6],0.28%
same,"Triol Impurity, average content",[1]; [6],0.00%
same,Acetal impurity,[2]; [7],0.05%
same,Amine impurity,[2]; [7],0.04%
same,Assay,[2]; [7],99.73
same,Description,[2]; [7],clear
same,Regiomer,[2]; [7],0.03%
same,Sum impurities >0.05,[2]; [7],0.05%
same,Total (impurity),[2]; [7],0.27%
same,Triol impurity,[2]; [7],0.02%
same,pH,[2]; [7],7.34
same,Acetal impurity,[2]; [8],0.05%
same,Amine impurity,[2]; [8],0.04%
same,Assay,[2]; [8],99.81
same,Description,[2]; [8],clear
same,Regiomer,[2]; [8],0.06%
same,Sum impurities >0.05,[2]; [8],0.11%
same,Total (impurity),[2]; [8],0.34%
same,Triol impurity,[2]; [8],0.04%
same,pH,[2]; [8],7.34
same,Acetal impurity,[2]; [9],0.05%
same,Amine impurity,[2]; [9],0.06%
same,Assay,[2]; [9],98.51
same,Description,[2]; [9],clear
same,Regiomer,[2]; [9],0.11%
same,Sum impurities >0.05,[2]; [9],0.22%
same,Total (impurity),[2]; [9],0.40%
same,Triol impurity,[2]; [9],0.04%
same,pH,[2]; [9],7.30
same,Acetal impurity,[2]; [10],0.05%
same,Amine impurity,[2]; [10],0.04%
same,Assay,[2]; [10],98.95
same,Description,[2]; [10],clear
same,Regiomer,[2]; [10],0.00%
same,Sum impurities >0.05,[2]; [10],0.22%
same,Total (impurity),[2]; [10],0.41%
same,Triol impurity,[2]; [10],0.05%
same,pH,[2]; [10],7.33
same,Acetal impurity,[2]; [11],0.05%
same,Amine impurity,[2]; [11],0.05%
same,Assay,[2]; [11],104.47
same,Description,[2]; [11],clear
same,Regiomer,[2]; [11],0.01%
same,Sum impurities >0.05,[2]; [11],0.14%
same,Total (impurity),[2]; [11],0.32%
same,Triol impurity,[2]; [11],0.05%
same,pH,[2]; [11],7.50
same,Acetal impurity,[2]; [12],0.05%
same,Amine impurity,[2]; [12],0.05%
same,Assay,[2]; [12],102.59
same,Description,[2]; [12],clear
same,Regiomer,[2]; [12],0.04%
same,Sum impurities >0.05,[2]; [12],0.15%
same,Total (impurity),[2]; [12],0.29%
same,Triol impurity,[2]; [12],0.05%
same,pH,[2]; [12],7.48
same,Acetal impurity,[2]; [13],0.05%
same,Amine impurity,[2]; [13],0.05%
same,Assay,[2]; [13],102.31
same,Description,[2]; [13],clear
same,Regiomer,[2]; [13],0.08%
same,Sum impurities >0.05,[2]; [13],0.23%
same,Total (impurity),[2]; [13],0.41%
same,Triol impurity,[2]; [13],0.04%
same,pH,[2]; [13],7.55
same,Acetal impurity,[2]; [14],0.05%
same,Amine impurity,[2]; [14],0.04%
same,Assay,[2]; [14],104.27
same,Description,[2]; [14],clear
same,Regiomer,[2]; [14],0.00%
same,Sum impurities >0.05,[2]; [14],0.11%
same,Total (impurity),[2]; [14],0.31%
same,Triol impurity,[2]; [14],0.04%
same,pH,[2]; [14],7.40
same,Acetal impurity,[2]; [15],0.05%
same,Amine impurity,[2]; [15],0.05%
same,Assay,[2]; [15],105.88
same,Description,[2]; [15],clear
same,Regiomer,[2]; [15],0.01%
same,Sum impurities >0.05,[2]; [15],0.09%
same,Total (impurity),[2]; [15],0.26%
same,Triol impurity,[2]; [15],0.03%
same,pH,[2]; [15],8.10
same,Acetal impurity,[2]; [16],0.05%
same,Amine impurity,[2]; [16],0.05%
same,Assay,[2]; [16],105.46
same,Description,[2]; [16],clear
same,Regiomer,[2]; [16],0.03%
same,Sum impurities >0.05,[2]; [16],0.15%
same,Total (impurity),[2]; [16],0.32%
same,Triol impurity,[2]; [16],0.05%
same,pH,[2]; [16],8.04
same,Acetal impurity,[2]; [17],0.05%
same,Amine impurity,[2]; [17],0.07%
same,Assay,[2]; [17],104.46
same,Description,[2]; [17],clear
same,Regiomer,[2]; [17],0.06%
same,Sum impurities >0.05,[2]; [17],0.23%
same,Total (impurity),[2]; [17],0.37%
same,Triol impurity,[2]; [17],0.05%
same,pH,[2]; [17],8.03
same,Acetal impurity,[2]; [18],0.05%
same,Amine impurity,[2]; [18],0.04%
same,Assay,[2]; [18],103.25
same,Description,[2]; [18],clear
same,Regiomer,[2]; [18],0.00%
same,Sum impurities >0.05,[2]; [18],0.25%
same,Total (impurity),[2]; [18],0.43%
same,Triol impurity,[2]; [18],0.06%
same,pH,[2]; [18],8.07
same,stability of ticagrelor solution in HPβCD (conclusion),[2]; pH range of 7 to 8,stable

# Source: US20260007599A1, “TICAGRELOR IV FORMULATIONS FOR USE IN THE TREATMENT OF GRAM-POSITIVE BACTEREMIA” (Hyloris Developments SA, priority 2023, published 2026)
